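Results reflect a 48-hour exposure of cells in 96-well plates to compound at five concentrations. Here, GI50 denotes the concentration required for 50% inhibition of growth. At the TGI there is no net growth.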
Columns and labels:
Assay in all cases: NCI-60 cell line screen, 48 h
[1] = test system: NCI/ADR-RES ovarian
[2] = test system: NCI-H23 lung
[3] = test system: NCI-H460 lung
[4] = test system: RXF 393 renal
[5] = test system: UACC-62 melanoma
[6] = test system: K-562 leukemia
[7] = test system: SK-OV-3 ovarian
[8] = test system: RPMI-8226 leukemia
[9] = test system: SNB-19 CNS
[10] = test system: COLO 205 colon
[11] = test system: SK-MEL-28 melanoma
[12] = test system: HCT-116 colon
[13] = test system: SR leukemia
[14] = test system: CCRF-CEM leukemia
[15] = test system: MALME-3M melanoma
[16] = test system: MDA-MB-231 breast
[17] = test system: OVCAR-8 ovarian
[18] = test system: T-47D breast
[19] = test system: HT29 colon
[20] = test system: A498 renal
[21] = test system: A549 NSCLC
[22] = test system: HCT-15 colon
[23] = test system: HOP-92 NSCLC
[24] = test system: HOP-62 NSCLC
[25] = test system: UACC-257 melanoma
[26] = test system: MDA-MB-435
[27] = test system: PC-3 prostate
[28] = test system: NCI-H522 lung
[29] = test system: DU-145 prostate
[30] = test system: OVCAR-5 ovarian
[31] = test system: MOLT-4 leukemia
[32] = test system: HL-60(TB) leukemia
[33] = test system: KM12 colon
[34] = test system: ACHN renal
[35] = test system: OVCAR-4 ovarian
[36] = test system: SF-539 CNS
[37] = test system: HCC-2998 colon
[38] = test system: MCF7 breast
[39] = test system: SK-MEL-2 melanoma
[40] = test system: TK-10 renal
[41] = test system: HS 578T breast
[42] = test system: SNB-75 CNS
[43] = test system: U251 CNS
[44] = test system: SK-MEL-5 melanoma
[45] = test system: M14 melanoma
[46] = test system: OVCAR-3 ovarian
[47] = test system: SF-295 CNS
[48] = test system: EKVX NSCLC
[49] = test system: 786-0 renal
[50] = test system: SF-268 CNS
[51] = test system: SW-620 colon
[52] = test system: LOX IMVI melanoma
[53] = test system: IGROV1 ovarian
[54] = test system: UO-31 renal
[55] = test system: BT-549 breast
[56] = test system: SN12C renal
[57] = test system: NCI-H226 lung
[58] = test system: CAKI-1 renal

## Cc1ccc(C2C3=C(N=c4s/c(=C/c5ccc(Br)cc5)c(=O)n42)c2ccc4ccccc4c2OCC3)cc1 (stereo unspecified)
[1]
  GI50: > 100 µM
  TGI: > 100 µM
[2]
  GI50: > 100 µM
  TGI: > 100 µM
[3]
  GI50: > 100 µM
  TGI: > 100 µM
[4]
  GI50: > 100 µM
  TGI: > 100 µM
[5]
  GI50: 67.9 µM
  TGI: > 100 µM
[6]
  GI50: > 100 µM
  TGI: > 100 µM
[7]
  GI50: > 100 µM
  TGI: > 100 µM
[8]
  GI50: > 100 µM
  TGI: > 100 µM
[9]
  GI50: > 100 µM
  TGI: > 100 µM
[10]
  GI50: > 100 µM
  TGI: > 100 µM
[11]
  GI50: > 100 µM
  TGI: > 100 µM
[12]
  GI50: > 100 µM
  TGI: > 100 µM
[13]
  GI50: > 100 µM
  TGI: > 100 µM
[14]
  GI50: > 100 µM
  TGI: > 100 µM
[15]
  GI50: 54.9 µM
  TGI: > 100 µM
[16]
  GI50: > 100 µM
  TGI: > 100 µM
[17]
  GI50: > 100 µM
  TGI: > 100 µM
[18]
  GI50: > 100 µM
  TGI: > 100 µM
[19]
  GI50: 67.8 µM
  TGI: > 100 µM
[20]
  GI50: > 100 µM
  TGI: > 100 µM
[21]
  GI50: > 100 µM
  TGI: > 100 µM
[22]
  GI50: 2.89 µM
  TGI: > 100 µM
[23]
  GI50: > 100 µM
  TGI: > 100 µM
[24]
  GI50: > 100 µM
  TGI: > 100 µM
[25]
  GI50: 35.7 µM
  TGI: > 100 µM
[26]
  GI50: > 100 µM
  TGI: > 100 µM
[27]
  GI50: > 100 µM
  TGI: > 100 µM
[28]
  GI50: > 100 µM
  TGI: > 100 µM
[29]
  GI50: > 100 µM
  TGI: > 100 µM
[30]
  GI50: > 100 µM
  TGI: > 100 µM
[31]
  GI50: > 100 µM
  TGI: > 100 µM
[32]
  GI50: > 100 µM
  TGI: > 100 µM
[33]
  GI50: > 100 µM
  TGI: > 100 µM
[34]
  GI50: > 100 µM
  TGI: > 100 µM
[35]
  GI50: > 100 µM
  TGI: > 100 µM
[36]
  GI50: > 100 µM
  TGI: > 100 µM
[37]
  GI50: > 100 µM
  TGI: > 100 µM
[38]
  GI50: > 100 µM
  TGI: > 100 µM
[39]
  GI50: > 100 µM
  TGI: > 100 µM
[40]
  GI50: > 100 µM
  TGI: > 100 µM
[41]
  GI50: > 100 µM
  TGI: > 100 µM
[42]
  GI50: > 100 µM
  TGI: > 100 µM
[43]
  GI50: > 100 µM
  TGI: > 100 µM
[44]
  GI50: > 100 µM
  TGI: > 100 µM
[45]
  GI50: > 100 µM
  TGI: > 100 µM
[46]
  GI50: > 100 µM
  TGI: > 100 µM
[47]
  GI50: > 100 µM
  TGI: > 100 µM
[48]
  GI50: > 100 µM
  TGI: > 100 µM
[49]
  GI50: > 100 µM
  TGI: > 100 µM
[50]
  GI50: > 100 µM
  TGI: > 100 µM
[51]
  GI50: > 100 µM
  TGI: > 100 µM
[52]
  GI50: > 100 µM
  TGI: > 100 µM
[53]
  GI50: > 100 µM
  TGI: > 100 µM
[54]
  GI50: > 100 µM
  TGI: > 100 µM
[55]
  GI50: > 100 µM
  TGI: > 100 µM

## COc1ccc(C(=O)COc2cccc(/C=C3\CSc4ccc(Cl)cc4C3=O)c2)cc1
[1]
  GI50: 11.4 µM
  TGI: 29.9 µM
[2]
  GI50: 14.2 µM
  TGI: 35 µM
[3]
  GI50: 16.2 µM
  TGI: 34.9 µM
[4]
  GI50: 1.14 µM
  TGI: 7.1 µM
[5]
  GI50: 6.23 µM
  TGI: 21 µM
[7]
  GI50: 25.9 µM
  TGI: > 100 µM
[8]
  GI50: 0.214 µM
  TGI: 3.51 µM
[9]
  GI50: 6.99 µM
  TGI: 20.1 µM
[10]
  GI50: 14.1 µM
  TGI: 29 µM
[11]
  GI50: 15.4 µM
  TGI: 29 µM
[12]
  GI50: 1.94 µM
  TGI: 4.3 µM
[14]
  GI50: 1.82 µM
  TGI: 5.41 µM
[15]
  GI50: 11.6 µM
  TGI: 32 µM
[16]
  GI50: 14.2 µM
  TGI: 64.3 µM
[17]
  GI50: 9.35 µM
  TGI: 56.3 µM
[18]
  GI50: 5.4 µM
  TGI: 28.9 µM
[19]
  GI50: 3.32 µM
  TGI: 11.4 µM
[20]
  GI50: 36.5 µM
  TGI: > 100 µM
[21]
  GI50: 64 µM
  TGI: > 100 µM
[22]
  GI50: 1.83 µM
  TGI: 4.36 µM
[23]
  GI50: 1.28 µM
  TGI: 19.8 µM
[24]
  GI50: 19.5 µM
  TGI: 47.3 µM
[25]
  GI50: 12.6 µM
  TGI: 33.4 µM
[26]
  GI50: 3.48 µM
  TGI: 17 µM
[27]
  GI50: 3.97 µM
  TGI: 20.4 µM
[28]
  GI50: 2.07 µM
  TGI: 4.9 µM
[56]
  GI50: 8.16 µM
  TGI: 25.7 µM
[29]
  GI50: 12.7 µM
  TGI: 25.3 µM
[30]
  GI50: 17 µM
  TGI: 34.2 µM
[31]
  GI50: 2.25 µM
  TGI: 5.53 µM
[32]
  GI50: 2.18 µM
  TGI: 7.21 µM
[33]
  GI50: 2.28 µM
  TGI: 5.57 µM
[34]
  GI50: 11.9 µM
  TGI: 24.6 µM
[35]
  GI50: 11.7 µM
  TGI: 28.4 µM
[57]
  GI50: 14.4 µM
  TGI: 62.8 µM
[36]
  GI50: 16.2 µM
  TGI: 30.7 µM
[37]
  GI50: 15.5 µM
  TGI: 30 µM
[38]
  GI50: 1.5 µM
  TGI: 11.3 µM
[39]
  GI50: 11.7 µM
  TGI: 25.1 µM
[40]
  GI50: 19.7 µM
  TGI: 41.4 µM
[41]
  GI50: 3.55 µM
  TGI: 31.7 µM
[42]
  GI50: 16.5 µM
  TGI: 37.2 µM
[43]
  GI50: 2.13 µM
  TGI: 4.59 µM
[44]
  GI50: 3.93 µM
  TGI: 18.5 µM
[45]
  GI50: 13.4 µM
  TGI: 31.6 µM
[46]
  GI50: 8.86 µM
  TGI: 21.2 µM
[47]
  GI50: 11.3 µM
  TGI: 28.7 µM
[48]
  GI50: 15.3 µM
  TGI: 52 µM
[49]
  GI50: 15.6 µM
  TGI: 29.8 µM
[50]
  GI50: 14.9 µM
  TGI: 30.3 µM
[51]
  GI50: 1.82 µM
  TGI: 4.1 µM
[52]
  GI50: 1.79 µM
  TGI: 3.48 µM
[53]
  TGI: 11.6 µM
[54]
  GI50: 11.5 µM
  TGI: 25.5 µM
[55]
  GI50: 12.9 µM
  TGI: 33.5 µM
[58]
  GI50: 12.4 µM
  TGI: 25.1 µM

— PubChem BioAssay (NCI)
